Reference: patent US8574834B2, “Method for predicting the response to a therapy” (Index Pharmaceuticals AB, priority 2007, dated 2013)

Test system: Tsp1 gene
Test: Tsp1 gene expression in PBMC after 48 hrs stimulation, real-time PCR
Format: cell-based, human
Settings: 10^-6 M Dex, normalised to basal expression
Text: FIG. 2 depicts the average value of expression level of Tsp1 gene in PBMC in response to 48 hrs stimulation with IDX0150 alone, Dex alone, or IDX0150 and Dex combination as quantified by real-time PCR. The experimental conditions and data handling were as described in FIG. 1 and Example 1.
FIG. 5 depicts the average value of expression level of Tsp1 gene in PBMC in response to 48 hrs stimulation with IDX0150 alone, Dex alone, or IDX0150 and Dex combination as quantified by real-time PCR. The experimental conditions and data handling were as described in FIG. 4 and Example 1.
Peripheral blood mononuclear cells (PMBC) were isolated from blood samples of seven steroid resistant asthma or ulcerative colitis patients and ten healthy volunteers by density gradient centrifugation using Ficoll-Paque Plus (Pharmacia Biotech), washed three times in buffered saline solution (PBS), and resuspended in complete RPMI 1640 (Sigma/Gibco) containing 15% heat inactivated fetal bovine serum (FCS) (Gibco, Life Technologies), 100 U/ml penicillin, 100 μg/ml streptomycin (Life Technologies), 2 mM L-glutamine (Sigma), gentamycin 25 ug/ml (Sigma) and 5 mM Hepes (Gibco, Life Technologies). Cells were counted using 0.4% Trypan blue solution (Sigma Aldrich). On average the yield of PBMC was in range of 60-120×10^6 cells per donor sample. […]

C[C@@H]1C[C@H]2[C@@H]3CCC4=CC(=O)C=C[C@]4(C)[C@@]3(F)[C@@H](O)C[C@]2(C)[C@@]1(O)C(=O)CO [dexamethasone]
induction of Tsp1: 3-5 fold
